# From patent publication US9649300B2, “Inhibition of WNT, TGF beta and Hippo signaling pathways to treat cancer, organ fibrosis and metabolic disorders” (University of Pittsburgh—of the Commonwealth System of …, priority 2013, dated 2017)
# How the values were obtained:
# [1] = oral, eight-week-old male untrained mice; cited from earlier work
# ACC = test: Phosphorylation of downstream AMPK target ACC; format: cell-based; conditions: FIG. 10E
# Protocol: (§1) FIGS. 10A-10F. FIGS. 10A and 10B. Dose and time dependent effects of C19 on phosphorylation of AMPK. In FIG. 10B, C19 was used at 5 μM. FIG. 10C. Effect of AICAR on phosphorylation of AMPK. FIG. 10D. Confirmation in different cell lines. FIGS. 10E and 10F. Effect of C19 on phosphorylation of downstream AMPK targets ACC and UIK1.
# (§2) Investigation of the mechanism by which C19 exert its activity led to the discovery that, in addition to its effect on MST/Lats, this compound acts as a potent activator of the metabolic enzyme and tumor suppressor kinase AMPK (FIG. 10).
# melanoma cells WM266 [2] = test: Tumor xenograft mouse model; format: in vivo
# Protocol: FIGS. 9A-9B. Effect of C19 (mg/Kg) on tumor growth (FIG. 9A) and body weight (FIG. 9B). Data represents 7 replicates ±SE. *p<0.05., **p<0.01.
# To obtain information regarding the efficacy of C19 in a tumor xenograft mouse model, nude mice (strain CD1) were injected subcutaneously with melanoma cells WM266. After tumors became palpable (˜5 mm in diameter), the mice were randomized into control and treatment groups (n=7). The control group was injected intraperitoneally with the vehicle (DMSO 3% in 200 μl of DMEM) and the treatment groups were injected with increasing doses of C19 (in mg/Kg) dissolved in 200 μl of vehicle solution. The animals received 3 injections starting on day 15 and separated by three days. Tumor volumes and body weight were measured on a daily basis.
# Hippo pathway = test: TEAD luciferase reporter (8xGT-II) as readout for Hippo signaling; format: cell-based; conditions: for inhibition of Hippo signaling: FIG. 8; for activity of Hippo reporter: FIG. 5
# Protocol: (§3) FIGS. 1A-1C. Screening for small molecules inhibitors of the Hippo pathway. FIG. 1A. Hippo associated luciferase reporter (8xGT-II) was used to screen a series of 30 thiadiazole derivatives. Cells transfected with the construct were incubated in the absence (c) or presence of the compounds at 10 μM for 24 hours. Luciferase activity expressed in arbitrary units (AU) was measured in protein extracts. Data represent average for three replicates ±SE. FIG. 1B. Structure of S21 compound. FIG. 1C. Activity of S21 on Hippo versus CMV-Luciferase reporter measured as described above.
# (§4) FIG. 2. S21 as a common inhibitor of Wnt, TGF beta and Hippo. 293 cells were transfected with luciferase reporters corresponding to each pathway and then exposed to S21, the Wnt inhibitor Pyrvinium (PYR) or the TGF beta inhibitor SB-431 at the indicated concentrations. After 24 hours, the cells were lysed and luciferase activity measured. Data represent average of three replicates ±SE.
# (§5) FIG. 5. Effect of S21 versus Pirfenidone on activity of Wnt, TGF beta and Hippo reporters. 293 cells were transfected with luciferase reporters corresponding to the three pathways and then incubated with the indicated concentration of S21 or Pirfenidone for 24 hours. Luciferase activity was measured in the protein extract. Each point represents average of three determinations ±SE.
# (§6) A TEAD luciferase reporter system was used as a readout for Hippo signaling, to screen a series of thiadiazole derivatives synthesized in our laboratory. For this, 293 cells transfected with the reporter construct were incubated in the absence or the presence of individual compounds at 10 μM concentration each for 24 hours. Proteins were then extracted and used as a source of enzyme of luciferase activity.
# AMPK = test: Phosphorylation (activation) of AMPK; format: cell-based; conditions: for activation of AMPK: FIG. 8
# Protocol: as §1, §2
# Ulk1 = test: Phosphorylation of downstream AMPK target Ulk1; format: cell-based; conditions: FIG. 10F
# Protocol: as §1, §2
# Wnt = Wnt luciferase reporter in 293 cells; format: cell-based; conditions: for activity of Wnt reporter: FIG. 5
# Protocol: as §4, §5
# (§7) By comparison, none of Wnt or TGF beta inhibitors had affected the Hippo pathway reporter.
# TGF beta = TGF beta luciferase reporter in 293 cells; format: cell-based; conditions: for activity of TGF beta reporter: FIG. 5
# Protocol: as §4, §5, §7
# [3] = test system: luciferase driven by the CMV promoter; test: CMV-Luciferase reporter (specificity control); format: cell-based
# Protocol: as §3, §6
# melanoma cell = test: Cell response to doxorubicin with and without S21; format: cell-based; conditions: FIG. 4D
# Protocol: (§8) FIGS. 4A-4D. Inhibition of EMT, cell migration, proliferation and resistance to therapy by S21. FIG. 4A. Western blots showing inhibition of various EMT genes in melanoma cells WM266 exposed to the indicated concentrations of S21 for 24 hours. FIG. 4B. Cell monolayer scratch assay depicting inhibition of cell migration by S21. FIG. 4C. Effect of S21 on cell proliferation measured after 5 days of incubation. FIG. 4D. Cell response to doxorubicin was measured in the presence of and absence of S21. Data in panels C and D represent average of three determinations ±SE.
# (§9) Future studies will be needed to elucidate the underlying mechanism.
# MST1 = biological target: T1, MST1 (Homo sapiens, UniProt Q13043); test: Western blot, phosphorylation of core kinase MST1; format: cell-based; conditions: dose-dependent, FIG. 3A
# T1 construct: endogenous in cells
# T1 sequence (Q13043 1-487): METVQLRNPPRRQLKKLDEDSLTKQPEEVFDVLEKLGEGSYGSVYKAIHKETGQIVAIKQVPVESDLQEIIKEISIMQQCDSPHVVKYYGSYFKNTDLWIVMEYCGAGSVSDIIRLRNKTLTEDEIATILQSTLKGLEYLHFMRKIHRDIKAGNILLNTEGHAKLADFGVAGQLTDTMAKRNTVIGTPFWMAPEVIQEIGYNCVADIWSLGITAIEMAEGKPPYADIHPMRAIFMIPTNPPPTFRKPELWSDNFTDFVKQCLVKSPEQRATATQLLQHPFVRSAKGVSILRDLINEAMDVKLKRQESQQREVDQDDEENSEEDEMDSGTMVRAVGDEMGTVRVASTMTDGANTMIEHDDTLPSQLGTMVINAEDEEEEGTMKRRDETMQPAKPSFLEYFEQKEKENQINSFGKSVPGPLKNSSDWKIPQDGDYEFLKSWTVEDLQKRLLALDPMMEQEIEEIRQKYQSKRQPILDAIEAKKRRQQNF
# Protocol: (§10) FIGS. 3A-3B. Effect of S21 on key elements of the Hippo pathway. Western blot analysis was carried out to determine the effect of S21 on expression and phosphorylation of MST/Lats (FIG. 3A) and nucleocytoplasmic localization of YAP and beta catenin (FIG. 3B).
# (§11) To gain insights into the mechanism(s) by which S21 inhibits the Hippo pathway, its effect on activation of the core kinases MST1 and Lats1 was analyzed.
# melanoma cells WM266 [4] = test: Western blots of EMT genes and downstream target genes; format: cell-based; conditions: WM266, 24 hours
# Protocol: as §8, §9
# beta catenin = test: Western blot, nucleocytoplasmic localization of beta catenin; format: cell-based; conditions: FIG. 3B
# Protocol: as §10, §11
# YAP = test: Western blot, nucleocytoplasmic localization of YAP; format: cell-based; conditions: FIG. 3B
# Protocol: as §10, §11
# fibroblasts = test: Expression of fibrotic markers (QPCR, Western blot); format: cell-based; conditions: RNA and protein level
# Excerpt: FIGS. 6A-6B. S21 inhibits expression of pro-fibrotic and pro-EMT genes. FIG. 6A. QPCR analysis depicting expression levels of pro-EMT ad fibrosis genes in the absence and the presence of S21. FIG. 6B. Western blot analysis showing the effect of S21 on expression of fibronectin, collagen and vimentin. Beta catenin was used as a loading control.
# Lats1 = biological target: T2, Lats1 (Homo sapiens, UniProt O95835); test: Western blot, phosphorylation of core kinase Lats1; format: cell-based; conditions: dose-dependent, FIG. 3A
# T2 construct: endogenous in cells
# T2 sequence (O95835 1-1130): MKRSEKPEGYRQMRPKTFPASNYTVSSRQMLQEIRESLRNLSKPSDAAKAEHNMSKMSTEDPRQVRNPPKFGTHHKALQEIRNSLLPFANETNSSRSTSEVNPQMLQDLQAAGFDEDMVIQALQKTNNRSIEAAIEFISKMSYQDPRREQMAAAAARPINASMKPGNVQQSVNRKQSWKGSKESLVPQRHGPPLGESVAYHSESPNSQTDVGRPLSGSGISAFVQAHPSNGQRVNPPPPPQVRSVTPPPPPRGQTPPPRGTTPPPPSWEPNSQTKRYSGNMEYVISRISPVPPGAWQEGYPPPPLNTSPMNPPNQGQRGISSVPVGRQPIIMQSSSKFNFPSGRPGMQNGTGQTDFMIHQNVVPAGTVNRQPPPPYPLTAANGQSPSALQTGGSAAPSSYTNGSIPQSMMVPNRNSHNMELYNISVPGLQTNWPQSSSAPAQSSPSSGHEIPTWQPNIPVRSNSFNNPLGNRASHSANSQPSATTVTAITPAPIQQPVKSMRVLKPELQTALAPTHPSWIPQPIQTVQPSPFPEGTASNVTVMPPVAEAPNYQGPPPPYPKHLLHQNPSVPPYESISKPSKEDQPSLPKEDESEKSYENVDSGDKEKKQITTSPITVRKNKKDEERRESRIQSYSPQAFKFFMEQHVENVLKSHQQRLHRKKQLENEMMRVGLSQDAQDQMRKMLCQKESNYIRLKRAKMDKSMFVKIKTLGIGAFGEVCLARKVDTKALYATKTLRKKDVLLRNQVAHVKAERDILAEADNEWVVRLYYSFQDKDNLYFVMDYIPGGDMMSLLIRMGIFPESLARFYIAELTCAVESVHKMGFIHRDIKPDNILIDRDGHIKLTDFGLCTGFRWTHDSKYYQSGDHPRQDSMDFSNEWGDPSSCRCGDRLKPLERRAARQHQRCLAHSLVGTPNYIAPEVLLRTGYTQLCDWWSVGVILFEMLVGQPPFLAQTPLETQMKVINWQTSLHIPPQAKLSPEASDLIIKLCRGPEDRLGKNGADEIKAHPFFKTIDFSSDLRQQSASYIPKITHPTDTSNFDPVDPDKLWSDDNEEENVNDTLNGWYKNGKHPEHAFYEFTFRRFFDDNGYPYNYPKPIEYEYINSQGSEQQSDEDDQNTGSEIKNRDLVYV
# Protocol: as §10, §11
# [5] = test system: three melanoma and one colon cancer cell lines; test: Cell proliferation after 5 days of incubation; format: cell-based
# Protocol: as §8, §9
# cell migration = test: Cell monolayer scratch assay; format: cell-based; conditions: FIG. 4B
# Protocol: as §8, §9
# [6] = tested for up to 100 μM, data not shown
structure (smiles),measurement,setting,value
"NC(=O)c1ncn([C@@H]2O[C@H](CO)[C@@H](O)[C@H]2O)c1N [AICAR, 5-aminoimidazole-4-carboxamide 1-D-ribonucleoside]",increase in endurance without exercise,[1],44%
"OCCCCOc1nsnc1-c1ccc(Cl)c(Cl)c1 [C19, 4-((4-(3,4-dichlorophenyl)-1,2,5-thiadiazol-3-yl)oxy)butan-1-ol]",phosphorylation of ACC,ACC,induced phosphorylation
same,inhibition of tumor growth,"melanoma cells WM266 [2]; 20 mg/Kg intraperitoneal, 3 injections from day 15",about 90%
same,tumor growth,"melanoma cells WM266 [2]; intraperitoneal, increasing doses, 3 injections from day 15",suppresses tumor growth in a dose dependent manner
same,signs of toxicity or death,melanoma cells WM266 [2]; throughout the experiment,No signs of toxicity or death
same,body weight compared to controls,"melanoma cells WM266 [2]; treatment groups, FIG. 9B",did not change significantly
same,inhibition of Hippo signaling,Hippo pathway,inhibition
same,activation of AMPK,AMPK,activation
same,potency on AMPK relative to AICAR,AMPK; FIG. 10C,at least 10 times
same,effect on AMPK in different cell lines,AMPK; FIG. 10D,validated
same,phosphorylation (activation) of AMPK,"AMPK; concentration and time dependent, FIGS. 10A and 10B",induced phosphorylation
same,phosphorylation of Ulk1,Ulk1,induced phosphorylation
"Cc1ccc(=O)n(-c2ccccc2)c1 [Pirfenidone, reference compound]",activity of Wnt reporter,"Wnt; 293 cells, 24 hours",without effect
same,inhibition of Wnt reporter,Wnt; [6],no inhibition was detected
same,activity of Hippo reporter,"Hippo pathway; 293 cells, 24 hours",without effect
same,inhibition of Hippo reporter,Hippo pathway; [6],no inhibition was detected
same,activity of TGF beta reporter,"TGF beta; 293 cells, 24 hours",without effect
same,inhibition of TGF beta reporter,TGF beta; [6],no inhibition was detected
OCCCCOc1nsnc1-c1ccc(Cl)cc1 [S21],inhibition of luciferase driven by the CMV promoter,[3],did not inhibit
same,inhibition of Wnt signaling reporter,"Wnt; 293 cells, 24 hours, FIG. 2",remarkably inhibited
same,activity of Wnt reporter,"Wnt; 293 cells, 24 hours",dose dependent inhibition
same,melanoma cell response to doxorubicin in presence of compound,melanoma cell,significantly enhanced
same,phosphorylation of MST1,MST1,induced phosphorylation
same,expression of EMT-associated gene Zeb1,melanoma cells WM266 [4],strongly inhibits
same,level of Cyclin D,melanoma cells WM266 [4],reduced
same,level of Hes,melanoma cells WM266 [4],reduced
same,level of Myc,melanoma cells WM266 [4],reduced
same,nuclear and cytoplasmic levels of beta catenin,beta catenin,reduced nuclear localization and enhanced cytoplasmic levels
same,inhibition of TEAD luciferase reporter activity (Hippo signaling),"Hippo pathway; 293 cells, 10 μM, 24 hours",strongest inhibition
same,activity of Hippo reporter,"Hippo pathway; 293 cells, 24 hours",dose dependent inhibition
same,inhibition of Hippo signaling,Hippo pathway,inhibition
same,activation of AMPK,AMPK,activation
same,inhibition of TGF beta signaling reporter,"TGF beta; 293 cells, 24 hours, FIG. 2",remarkably inhibited
same,activity of TGF beta reporter,"TGF beta; 293 cells, 24 hours",dose dependent inhibition
same,nuclear and cytoplasmic levels of YAP,YAP,reduced nuclear localization and enhanced cytoplasmic levels
same,expression of Collagen,fibroblasts,dose dependent decrease
same,expression of Finbronectin,fibroblasts,dose dependent decrease
same,phosphorylation of Lats1,Lats1,induced phosphorylation
same,response of metastatic WM266 versus non-metastatic WM115,[5]; melanoma cell lines,responded better
same,anti-proliferative action,[5]; three melanoma and one colon cancer cell lines,anti-proliferative action
same,cell migration,cell migration,strongly inhibited
